According to PMC7329864, “Role of water in cyclooxygenase catalysis and design of anti-inflammatory agents targeting two sites of the enzyme” (Scientific Reports, 2020):
“Also recorded” adds a separate entry of the source. Read-outs that look alike come from different tables or passages of the source.

Tests used:
wt COX-2 = target: T1, wt COX-2 (Homo sapiens, UniProt P35354); experiment: COX inhibitory enzyme immunoassay (COX-2); type: biochemical; details: for IC50: enzyme immunoassay, screened at 10^–4–10^–8 M, average of 3 experiments, SD ± 0.5 µM; for SI (IC50(COX-1)/IC50 (COX-2): selectivity index COX-1/COX-2
T1 construct: purchased Cayman Chemical Co. item no; 560131
T1 sequence (P35354 18-604): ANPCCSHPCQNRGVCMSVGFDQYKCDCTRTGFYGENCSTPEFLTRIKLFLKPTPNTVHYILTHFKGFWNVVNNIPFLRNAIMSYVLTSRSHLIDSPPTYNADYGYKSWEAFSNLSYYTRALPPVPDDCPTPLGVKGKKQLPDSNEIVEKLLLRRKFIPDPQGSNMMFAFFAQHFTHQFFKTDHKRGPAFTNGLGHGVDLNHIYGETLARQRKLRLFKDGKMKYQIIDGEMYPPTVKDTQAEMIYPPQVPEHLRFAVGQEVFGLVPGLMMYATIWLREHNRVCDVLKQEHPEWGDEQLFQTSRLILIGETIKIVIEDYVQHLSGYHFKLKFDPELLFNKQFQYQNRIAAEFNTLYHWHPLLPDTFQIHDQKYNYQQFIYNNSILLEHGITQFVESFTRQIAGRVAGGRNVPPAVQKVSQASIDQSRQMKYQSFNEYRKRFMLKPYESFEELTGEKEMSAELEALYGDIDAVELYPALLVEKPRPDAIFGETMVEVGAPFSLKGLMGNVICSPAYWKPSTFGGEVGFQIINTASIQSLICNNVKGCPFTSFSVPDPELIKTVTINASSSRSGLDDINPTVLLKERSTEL
Procedure: (§1) All the compounds of Fig. 9 were screened for COX-1/2 inhibitory activity in triplicate at 10^–4–10^–8 M concentration by performing enzyme immunoassays. The activity of the compounds was quantified in terms of amount of prostaglandins produced by the enzymes in the presence of different concentrations of the compound.
(§2) For studying the COX-1, COX-2 inhibitory activities of the compounds, various reagents were prepared as per the protocol of the assays. The compounds were screened in triplicate at 10^–4–10^–8 M concentration using the procedure as described in the previous report.

COX-1 = target: T2, COX-1 (Ovis aries, UniProt P05979); experiment: COX inhibitory enzyme immunoassay (COX-1); type: biochemical
T2 construct: purchased Cayman Chemical Co. item no; 560131
T2 sequence (P05979 25-600): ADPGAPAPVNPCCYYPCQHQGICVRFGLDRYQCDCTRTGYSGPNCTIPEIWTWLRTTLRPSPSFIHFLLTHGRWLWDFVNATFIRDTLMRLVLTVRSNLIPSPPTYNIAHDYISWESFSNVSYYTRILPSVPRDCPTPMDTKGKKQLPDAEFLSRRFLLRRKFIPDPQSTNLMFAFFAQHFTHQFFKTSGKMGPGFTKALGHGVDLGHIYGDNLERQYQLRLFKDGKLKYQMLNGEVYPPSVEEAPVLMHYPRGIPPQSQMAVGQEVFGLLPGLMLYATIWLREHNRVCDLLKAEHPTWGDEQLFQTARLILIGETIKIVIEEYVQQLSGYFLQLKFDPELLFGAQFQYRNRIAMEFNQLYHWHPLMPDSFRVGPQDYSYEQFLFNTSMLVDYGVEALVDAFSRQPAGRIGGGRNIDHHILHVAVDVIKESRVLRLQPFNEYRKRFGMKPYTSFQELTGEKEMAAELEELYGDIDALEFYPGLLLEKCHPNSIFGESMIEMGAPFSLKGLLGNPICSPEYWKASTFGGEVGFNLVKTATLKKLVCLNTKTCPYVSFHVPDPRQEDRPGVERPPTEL
Procedure: as §1, §2

COX-2 = target: T3, COX-2 (Homo sapiens, UniProt P35354); experiment: UV-Vis and fluorescence studies of interaction with COX-2; type: binding; details: addition of COX-2 in Tris–HCl buffer pH 7.25 to solution of compound
T3 sequence (P35354 18-604): T1 sequence (P35354 18-604)
Text: In order to support in-silico experiments, the interactions of 1, 13d and 15d with COX-2 were checked with UV–vis and fluorescence spectral techniques. […] The appearance of level-off in the visible region (500–700 nm) was attributed to the Mie scattering due to the formation of aggregates. […] Corroborating the results of molecular modelling studies, the changes in the UV–Vis spectra as well as the fluorescence spectrum of the compound on addition of COX-2 probably occurred due to the HOMO–LUMO interactions between 1 and the enzyme (Figure S26). The linear Stern–Volmer plot of decrease in fluorescence intensity at 567 nm on increasing COX-2 concentration gave Stern–Volmer constant Ksv 3.30 × 10^4 M^-1. The detection limit of the compound for COX-2 was 0.02 nM (Figure S26C,D).
In order to support in-silico experiments, the interactions of 1, 13d and 15d with COX-2 were checked with UV-vis and fluorescence spectral techniques. […] The appearance of level-off in the visible region (500-700 nm) was attributed to the Mie scattering due to the formation of aggregates. […] Corroborating the results of molecular modelling studies, the changes in the UV-Vis spectra as well as the fluorescence spectrum of the compound on addition of COX-2 probably occurred due to the HOMO-LUMO interactions between 1 and the enzyme (Figure S27). The linear Stern-Volmer plot of decrease in fluorescence intensity at 567 nm on increasing COX-2 concentration gave Stern-Volmer constant Ksv 3.30x10^4 M^-1. The detection limit of the compound for COX-2 was 0.02 nM (Figure 27C, 27D).

[1] = enzyme immunoassay, screened at 10^–4–10^–8 M, average of 3 experiments, SD ± 0.5 µM, read-out: IC50 COX-1

Row | Structure (SMILES) | IC50 (wt COX-2) [µM] | SI (IC50(COX-1)/IC50 (COX-2) (wt COX-2) | IC50 (COX-1) [µM] | decrease in fluorescence intensity (quenching) in the presence of COX-2 (COX-2) | IC50 (COX-1; [1]) [µM]
1 | O=C1NC(=O)C(=Cc2cn(CCCCCn3c4ccccc4c(=O)c4ccccc43)c3ccccc23)C(=O)N1 [Compound 2, 5-((1-(5-(9-Oxoacridin-10(9H)-yl)pentyl)-1H-indol-3-yl)methylene)pyrimidine-2,4,6(1H, 3H, 5H)-trione] | 0.1 | 400 | 40 | – | –
2 | O=c1c2ccccc2n(CCCCCCBr)c2ccccc12 [Compound 13d, 10-(6-Bromohexyl)acridin-9(10H)-one] | 48.5 | > 2 | – | Small decrease; also recorded: much less | > 100
3 | COc1cc(/C=C2\C(=O)N(CCCn3c4ccccc4c(=O)c4ccccc43)c3ccccc32)cc(OC)c1O [Compound 10, (Z)-10-(3-(3-(4-Hydroxy-3,5-dimethoxybenzylidene)-2-oxoindolin-1-yl)propyl)acridin-9(10H)-one] | 12 | > 8 | – | – | > 100
4 | CN1C(=O)C(=Cc2cn(CCCCCCn3c4ccccc4c(=O)c4ccccc43)c3ccccc23)C(=O)N(C)C1=O [Compound 4] | 2.15 | 15 | 33 | – | –
5 | O=C1NC(=O)C(=Cc2cn(CCCn3c4ccccc4c(=O)c4ccccc43)c3ccccc23)C(=O)N1 [Compound 3, 5-((1-(3-(9-Oxoacridin-10(9H)-yl)propyl)-1H-indol-3-yl)methylene)pyrimidine-2,4,6 (1H, 3H, 5H)-trione] | 10 | > 10 | > 100 | – | –
6 | Cn1cc(/C=C2\C(=O)N(CCCCCn3c4ccccc4c(=O)c4ccccc43)c3ccccc32)c2ccccc21 [Compound 6, (Z)-10-(5-(3-((1-Methyl-1H-indol-3-yl)methylene)-2-oxoindolin-1-yl)pentyl)acridin-9(10H)-one] | 0.35 | 160 | – | – | 60
7 | COc1cc(/C=C2\C(=O)N(CCCCCn3c4ccccc4c(=O)c4ccccc43)c3ccccc32)cc(OC)c1O [Compound 9, (Z)-10-(5-(3-(4-Hydroxy-3,5-dimethoxybenzylidene)-2-oxoindolin-1-yl)pentyl)acridin-9(10H)-one] | 0.23 | 250 | – | – | 52
8 | O=Cc1cn(CCCCCCn2c3ccccc3c(=O)c3ccccc32)c2ccccc12 [Compound 15d, 1-(6-(9-Oxoacridin-10(9H)-yl)hexyl)-1H-indole-3-carbaldehyde] | 23.5 | > 4 | > 100 | Small decrease; also recorded: much less | –
9 | Cn1cc(/C=C2\C(=O)N(CCCn3c4ccccc4c(=O)c4ccccc43)c3ccccc32)c2ccccc21 [Compound 7, (Z)-10-(3-(3-((1-methyl-1H-indol-3-yl)methylene)-2-oxoindolin-1-yl)propyl)acridin-9(10H)-one] | 22 | > 4.5 | – | – | > 100
10 | COc1cc(/C=C2\C(=O)N(CCCCCCn3c4ccccc4c(=O)c4ccccc43)c3ccccc32)cc(OC)c1O [Compound 8, (Z)-10-(6-(3-(4-Hydroxy-3,5-dimethoxybenzylidene)-2-oxoindolin-1-yl)hexyl)acridin-9(10H)-one] | 0.12 | 400 | – | – | 48
11 | Cn1cc(/C=C2\C(=O)N(CCCCCCn3c4ccccc4c(=O)c4ccccc43)c3ccccc32)c2ccccc21 [Compound 5, (Z)-10-(6-(3-((1-Methyl-1H-indol-3-yl)methylene)-2-oxoindolin-1-yl)hexyl)acridin-9(10H)-one] | 0.15 | 350 | – | – | 53
